Among the data in patent US7449495B2, “Retinoid derivatives with antiangiogenic, antitumoral and proapoptotic activities” (Sigma-Tau Industrie Farmaceutiche Riunite S.p.A., priority 2001, dated 2008) are IC50 values, retold here.

Holding throughout (format): cell-based
Test [1] relates to Human ovarian carcinoma A2780. Nature of the test: Cytotoxicity test (sulphorodamine B), A2780. Particulars: 24 h incubation, survival 48 h after removal. The text has this:
(§1) Different cell lines deriving from solid tumors were also used. • 1. Human prostate carcinoma PC3 and DU145. These cell lines were maintained in RPMI 1640 medium containing 10% FCS, 1% sodium pyruvate and 1% glutamine; • 2. Human colon adenocarcinoma LoVo. This cell line was maintained in HAM's F-12 medium, containing 10% FCS and 1% glutamine. • 3. Human ovarian carcinoma such as A2780 and A2780/Dx, sensitive and resistant to drugs, respectively (doxorubicin, taxol, etoposide, vincristine); IGROV-1 and IGROV-1/Pt, sensitive and resistant to platinum-based chemotherapy, respectively, were maintained in RPMI 1640 medium containing 10% FCS, 1% sodium pyruvate and 1% glutamine; • 4. Human melanoma MeWo and MeS 2.21, glioblastoma GBM, no small cell lung carcinomas A431, NCI—H460, osteosarcomas SAOS and U2OS were maintained in RPMI 1640 medium containing 10% FCS, 1% sodium pyruvate and 1% glutamine.
(§2) The cytotoxicity tests were carried out using NB4 or HL-60 cells in suspension (10000/well). The cells were seeded in a volume of 250 μl in 96 well plates and incubated for 24 hours at 37° C. […] The optical density was measured using a Multiskan spectrophotometer at 540 nm. […]
(§3) Cell survival was determined by incubation with ST1926 for 24 hours, 48 hours after the removal of the compound. […]

A further test deals with glioblastoma GBM. The test can be described thus: Cytotoxicity test (sulphorodamine B), GBM. Particulars: Homo sapiens, 24 h incubation, survival 48 h after removal.
Text: as §1, §2, §3

In test [2] the test system is Human colon adenocarcinoma LoVo. Nature of the test: Cytotoxicity test (sulphorodamine B), LoVo. Particulars: 24 h incubation, survival 48 h after removal, read-out: IC50.
Text: as §1, §2, §3

Test [3] has as its system HL60 acute promyelocytic leukaemia cell line. The test can be described thus: Cytotoxicity test (sulphorodamine B), HL-60. Particulars: Homo sapiens, 24 h incubation, survival 48 h after removal.
Text: To carry out the cytotoxicity tests, two acute promyelocytic leukaemia (APL) cell lines were used. • 1. Cell line NB4, carrying the chromosomal translocation t(15; 17) which generates the fusion protein PML/RARα. This cell line is extremely sensitive to the differentiating action of pharmaceutical doses of ATRA (10^−7-10^−6 M); • 2. Cell line HL60, which responds to ATRA less sensitively with respect to cell line NB4.
These cell lines were maintained in RPMI 1640 containing 10% foetal calf serum (FCS) and 1% glutamine.
The cytotoxicity tests were carried out using NB4 or HL-60 cells in suspension (10000/well). The cells were seeded in a volume of 250 μl in 96 well plates and incubated for 24 hours at 37° C. The following day, test compound ST 1926 [(2E)-3-[3′-(1-Adamantyl)-4′-hydroxy[1,1′-biphenyl]-4-yl]-2-propenoate/ic acid] was added at increasing concentrations, and the cells were incubated for a further 24 hours at 37° C. in a humidified atmosphere containing 5% CO2. On the 3rd day, the medium was removed by centrifuging the plate at 1600×g for 10 min and the supernatant decanted. […] The optical density was measured using a Multiskan spectrophotometer at 540 nm.
as §3

For `O=C(O)/C=C/c1ccc(-c2ccc(O)c(C34CC5CC(CC(C5)C3)C4)c2)cc1` [ST1926, E-4-(3-(1-adamantyl)-4-hydroxyphenyl)cinnamic acid], the concentration for half-maximal inhibition (IC50) in test [1] came to 100 nM; in the test with glioblastoma GBM, 180 nM; in test [2], 240 nM; in test [3], 200 nM.

The term IC50 denotes the concentration needed to halve the response being measured.
